Measured values as given in patent publication US20190083457A1, “MITOCHONDRIAL ALDEHYDE DEHYDROGENASE-2 MODULATORS FOR PROTECTING, EXPANDING AND INCREASING THE POTENCY OF HEMATOPOIETIC STEM CELLS” (The Borad of Trustees of the Leland Stanford Junior …, priority 2017, published 2019).
Entries after “also recorded” stand apart in the source; their conditions may differ.

Tests used:
[1] = Tolerability of chronic Alda-1 administration in vivo; settings: 10 mg/kg.day continuous subcutaneous infusion, 3 months
Description: (§1) Mice (wild-type C57BL/6N were administered with Alda-1 (10 mg/kg.day) or vehicle control (50% DMSO/50% PEG-400) by continuous infusion via subcutaneous osmatic pumps for 3 months.
(§2) Vehicle control and Alda-1 treated mice were then analyzed for HSC functionality. […] With reference to FIG. 1A and FIG. 1B, error bars show standard deviation, significance computed with Student's t-test. *=p≤0.05.

[2] = tested on: HSCs; test: Competitive repopulation with HSCs from Alda-1 treated and untreated donors; assay type: in vivo, mice; settings: FIG. 2
Excerpt: To measure the effects of ALDH2 activation on HSC potency, recipient mice were transplanted with purified HSCs from two donors, one of which had received Alda-1 prior to collection of HSCs for transplant, and another of the same strain which had not received Alda-1 prior to collection for transplant. The two donors were genetically the same except for a difference in the CD45 gene, which allows the blood cells from each to be distinguished from each other and the recipient.
The Alda-1 treated donor had received Alda-1 subcutaneously for 2 months prior to HSC collection. The cells from the treated and untreated donors were mixed together prior to transplant at fixed ratios of 1:3 (25%), 1:1 (50%), or 3:1 (75%). A total of 3000 HSCs were given intravenously to immunodeficient (γc^-/- Kit^W41/W41) mice after low dose irradiation. The polymorphonuclear neutrophils (PMN, aka granulocytes) in each recipient mouse were tested at 6 weeks after transplant to determine what proportion of the PMN were derived from each HSC donor.
With reference to FIG. 2, the X-axis represents percentage of total cells infused which were from Alda-1 treated donor and the Y-axis represents the actual percentage of PMN observed after HSCT to be derived from Alda-1 treated donor. The linear line represents the predicted ratio if there were no difference in the repopulating ability of the HSC cells.

[3] = tested on: HSC; test: HSC expansion in mice given Alda-1 by continuous subcutaneous infusion; assay type: in vivo, mice (wild-type C57BL/6N)
Description: as §1, §2

SMILES: O=C(NCc1ccc2c(c1)OCO2)c1c(Cl)cccc1Cl [Alda-1]
- tolerability of chronic administration [1]: well tolerated
- origin of PMN in recipient vs ratio of transplanted cells ([2]; 6 weeks after transplant, treated:untreated donor cells 1:3, 1:1 or 3:1): more likely to be derived from the Alda-1 treated donor than predicted
- potency / repopulating ability of HSC in recipient ([2]; donor given Alda-1 subcutaneously for 2 months, 3000 HSCs i.v. to irradiated immunodeficient mice): increased repopulating ability; also recorded: increased the potency of HSC in repopulating recipient
- HSC expansion (in words) ([3]; Alda-1 10 mg/kg.day, subcutaneous osmotic pumps, 3 months, vs vehicle control): significant HSC expansion
- increase in (LT)-HSCs ([3]; Alda-1 10 mg/kg.day, subcutaneous osmotic pumps, 3 months, vs vehicle control, FIG. 1A): 4 fold
- increase in (ST)-HSCs ([3]; Alda-1 10 mg/kg.day, subcutaneous osmotic pumps, 3 months, vs vehicle control, FIG. 1B): 2 fold
- long-term mouse HSC (in words) ([3]; FIG. 1A legend): increases long-term mouse HSC
- short-term HSC (in words) ([3]; FIG. 1B legend): increases short-term HSC
